These results are taken from US8628806B2, “Hypolipidemic composition and its use” (Hangzhou Minsheng Pharmaceutical Co., Ltd., priority 2006, dated 2014).

Assay [1] relates to hyperlipidemia mice. Briefly: Example 16 dose screening of H1+B1 (4:1) in yolk emulsion hyperlipidemia mice. It counts as in vivo, ICR mice. The note with it: dose 20 mg/kg ig once daily 7 days; X±SD, 10 animals. As for the experimental part: H1 is peony extract obtained from Example 1. B1 is Codonopsis extract obtained from Example 7. The test medicines are mixtures of H1 and B1 with the ratio of 4:1 (the weight ratio of peony extract and Codonopsis extract is 2.7:1).
80 SPF ICR mice were employed with the body weight 20±2 g, half are male and the other half are female. Provided by Zhejiang Province Experimental Animal Center, Licence: SCXK(ZHE)2003-0001
(§1) 90 ml yolk and 30 ml physiological Saline were mixed thoroughly in electric mixer to form emulsion, which was stored at 4° C. for further use.
(§2) 80 ICR mice were randomly divided into 8 groups: test medicine 1, test medicine 2, test medicine 3, test medicine 4, test medicine 5, postive control group (Zocor), model control group and normal control group, 10 mice for each group, half male and half female. Once daily for a continuous 7-day period, the model control group and normal control group were provided with same volume of distilled water, while the other groups were administered with medicines by gastric perfusion. 2 hours after the last gastric perfusion, except for the normal control group, fresh yolk emulsion was intraperitoneally injected to the rest 7 groups of mice, 0.5 ml for a single animal. After 20 hours, eye ball was plucked and blood was collected, make sure 12 hours fasting before the collection. The content of total cholesterol (TC), triglyceride (TG) and high density lipoprotein (HDL-C) of the serum were measured.
T test was employed to analyze the significant difference between the groups. The result is shown in X±SD.

Assay [2] has as its system hyperlipidemia mice. In words: Example 14 lipid lowering screening test in yolk emulsion hyperlipidemia mice. The note with it: hyperlipidemia ICR mice; ig once daily 7 days; dose 20 mg/kg; X±SD, 10 animals. It counts as in vivo. The procedure:
As described before, the test medicine is the mixture of H series and B series in the ratio H:B (3:1). Recommended dose (for animal) is: […] the recommended does is 200 mg/kg. • Test medicine 1: H1+B1, ig 0.2 ml/10 g; • Test medicine 2: H2+B1, ig 0.2 ml/10 g; • Test medicine 3: H3+B1, ig 0.2 ml/10 g; • Test medicine 4: H4+B1, ig 0.2 ml/10 g; • Test medicine 5: H5+B1, ig 0.2 ml/10 g; • Test medicine 6: H1+B2, ig 0.2 ml/10 g; • Test medicine 7: H2+B2, ig 0.2 ml/10 g; • Test medicine 8: H3+B2, ig 0.2 ml/10 g; • Test medicine 9: H4+B2, ig 0.2 ml/10 g; • Test medicine 10: H5+B2, ig 0.2 ml/10 g; • Test medicine 11: HB ig 0.2 ml/10 g.
130 SPF ICR mice were employed with the body weight 20±2 g, half are male and the other half are female. Provided by Zhejiang Province Experimental Animal Center, Licence: SCXK(ZHE)2003-0001
as §1
as §2, with “140 ICR” for “80 ICR”, “into 14” for “into 8”, “5, test medicine 6, test medicine 7, test medicine 8, test medicine 9, test medicine 10, test medicine 11,” for “5,”, “a continous” for “a continuous”, “except of” for “except for”, “rest 13” for “rest 7”
EXCEL was employed to analyze the significant difference between the groups. The result is shown in X±SD.

Assay [3] concerns hyperlipidemia mice. In words: Example 15 hypolipidemic effect of peony/Codonopsis extract ratios in yolk emulsion hyperlipidemia mice. It counts as in vivo. The note with it: hyperlipidemia ICR mice. The procedure: Group H1 and B1 were mixed in different ratios (see Table 8) and formulated into different test medicines. Recommended dose (animal): H1+B1=200 mg/kg body weight, ig dose is 0.2 ml/10 g body weight. [table] 100 SPF ICR mice were employed with the body weight 20±2 g, half are male and the other half are female. Provided by Zhejiang Province Experimental Animal Center, Licence: SCXK(ZHE)2003-0001 90 ml yolk and 30 ml physiological Saline were mixed thoroughly in electric mixer to form emulsion, which was stored at 4° C. for further use. […]: test medicine 1-23 groups, postive control group (Zocor), model control group and normal control group, 10 mice for each group, half male and half female. […] The content of total cholesterol (TC), triglyceride (TG) and high density lipoprotein (HDL-C) of the serum were measured. T test was employed to analyze the significant difference between the groups. The result is shown in X±SD.

The mark [4] stands for this setting: ig once daily 7 days, dose 20 mg/kg, X±SD, 10 animals.
The mark [5] stands for this setting: test medicines 200 mg/kg, positive control 20 mg/kg, ig 7 days.

On to `CCC(C)(C)C(=O)O[C@H]1C[C@@H](C)C=C2C=C[C@H](C)[C@H](CC[C@@H]3C[C@@H](O)CC(=O)O3)[C@H]21` [positive control group], for which, in assay [1], the “HDL-C (serum high density lipoproteincholesterol content)” value is reported as 1.35 ± 0.15 mmol/L, the HDL-C/TC was 0.26 ± 0.06, the “TC (total serum cholesterol content)” value is given as 5.97 ± 2.40 mmol/L and the “TG (serum triglyceride content)” value was found to be 4.31 ± 3.28 mmol/L. For the same compound, in assay [2], the “HDL-C (serum high density lipoproteincholesterol content)” value worked out at 1.39 ± 0.23 mmol/L, the HDL-C/TC is 0.18 ± 0.05, the “TC (total serum cholesterol content)” value is 8.58 ± 4.18 mmol/L and the “TG (serum triglyceride content)” value is on record as 7.78 ± 5.36 mmol/L. In assay [3] (setting [4]), the “HDL-C (serum high density lipoproteincholesterol content)” value amounted to 1.59 ± 0.13 mmol/L, the HDL-C/TC was 0.22 ± 0.08, the “TC (total serum cholesterol content)” value was 8.03 ± 3.12 mmol/L and the “TG (serum triglyceride content)” value is reported as 8.57 ± 4.20 mmol/L. In addition, in assay [3] (setting [5]), the “TC compared with model control group” value is “lower TC, with significant difference (P<0.05)” and the “TG compared with model control group” value is on record as “lower TG, with significant difference (P<0.05)”.
